Measured values from patent publication US20240307409A1, “ARGININE METHYLTRANSFERASE INHIBITOR AND USE THEREOF” (Cytosinlab Therapeutics Co., Ltd., priority 2021, published 2024).

Columns and labels:
Toledo cells = test: Toledo cell proliferation inhibition assay; format: cell-based; conditions: Homo sapiens, Toledo, 144 h; six-day assay, CellTiter-Glo
Summary of the method: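 Toledo cells seeded at 2000 cells/well in RPMI 1640 + 10% FBS and incubated with compound for six days at 37° C, 5% CO2. Viability was then read by CellTiter-Glo luminescence after 30 min orbital mixing.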

MMA in RKO cells = test: RKO In Cell Western assay (MMA primary antibody); format: cell-based; conditions: Homo sapiens, 72 hours, read-out: RKO ICW_EC30
Method: RKO was seeded at a concentration of 20,000 cells/ml into a polylysine-coated 96-well plate (Corning #3599), with 2,000 cells per well and 100 μL of culture mediumper well. 500 nL of compound was added to the 96-well plate. 3) The 96-well plate was incubated in a 37° C., 5% CO2 incubator for 72 hours. After three days, the 96-well plate was taken from the incubator, 100 μL of 8% paraformaldehyde solution was added to each well, and the plate was placed at room temperature for 15 min. After 15 min, the liquid in the plate was shaken out and the plate was washed three times with phosphate buffer (1*PBS). The liquid in the plate was shaken out and 200 μL of membrane-breaking buffer (0.1% (v/v) Tween-20 in PBS) was added and the plate was incubated on a shaker for 30 min. After half an hour, the liquid in the plate was shaken out, and blocking buffer was added and the plate was incubated for two hours at room temperature with shaking. After that, the liquid in the plate was shaken off, and the blocking solution containing primary antibody (MMA primary antibody, CST #8711S, 1:1000 v/v) was added to the 96-well plate and the plate was incubated at 4° C. overnight with shaking. The next day, the plate was washed three times with washing solution (0.05% (v/v) Tween-20 in PBS), and a blocking solution containing secondary antibody (goat anti-rabbit IgG (H+L) Invitrogen #31460, 1:10,000 v/v) was added and the plate was incubated for two hours at room temperature. Afterwards, the 96-well plate was washed four times with washing solution. The TMB mixture was added to the 96-well plate and then the plate was incubated for 15 minutes at room temperature with shaking. After that, the reaction terminating solution was added, and the value was read at OD450 nm using an microplate reader. The plate was washed three times with washing solution, and 50 μL of janusgreen staining solution was added, and the plate was incubated for 15 minutes at room temperature with shaking. The reaction was washed ten times with water until no color residue was left. 200 μL of 0.5 M hydrochloric acid solution was added to each well and the plate was incubated for 10 min at room temperature. The value was read at OD595 nm using Flexstation.
Firstly, the ratio OD450/OD595 was calculated for each well
Each plate had six DMSO negative control groups (ZPE) and six 10 μM positive control groups (HPE), and the average of the control group ratios was used to determine the percentage of activation for each test well. The compounds to be tested were triple diluted with DMSO for a total of 8 concentration points with a starting concentration of 5 μM. The equation for calculating the activation percentage of each test well was: […]

PRMT1 = PRMT1 (Homo sapiens, UniProt Q99873); test: PRMT1 enzyme activity test; format: biochemical; conditions: 0.5 nM PRMT1, 3H-SAM, peptide
Summary of the method: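 Radiometric methylation assay: 0.5 nM PRMT1 preincubated 15 min at room temperature with compound (10-point 3-fold series, 1% DMSO) in pH 8.0 Tris buffer with Tween-20 and DTT. 0.25 uM ³H-SAM and 0.1 uM biotinylated peptide then reacted 120 min. Product captured on streptavidin FlashPlate and counted; IC50 from four-parameter fit of % inhibition.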

Chain of PRMT1 (Q99873 whole entry): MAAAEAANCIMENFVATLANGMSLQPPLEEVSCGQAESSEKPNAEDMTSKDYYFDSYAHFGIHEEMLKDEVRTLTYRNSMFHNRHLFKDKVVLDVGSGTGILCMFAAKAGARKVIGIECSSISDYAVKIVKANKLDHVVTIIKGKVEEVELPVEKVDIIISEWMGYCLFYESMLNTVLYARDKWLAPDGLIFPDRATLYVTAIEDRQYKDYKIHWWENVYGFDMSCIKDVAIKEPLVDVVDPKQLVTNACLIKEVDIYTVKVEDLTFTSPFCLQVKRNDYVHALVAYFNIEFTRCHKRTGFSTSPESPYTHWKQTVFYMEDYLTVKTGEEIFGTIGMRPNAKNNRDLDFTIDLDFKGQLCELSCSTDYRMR

Structure (SMILES) | IC50 (Toledo cells) [nM] | EC30 (MMA in RKO cells) [nM] | IC50 (PRMT1) [nM]
CNCCN(C)Cc1ncccc1N1CCC(C)(COc2ccccc2)CC1 [P149] | < 1000 | 250 to 2500 | < 50
CNCCN(C)Cc1ccccc1[C@H]1CC[C@@]2(CCCCO2)CC1 [P050] | < 1000 | 250 to 2500 | < 50
CCOCC1CC=C(c2ccccc2CN(C)CCNC)CC1 (stereo not drawn) [P054] | < 1000 | < 250 | < 50
CNCCN(C)Cc1ncccc1C1CCN(c2ccc(C#N)c(C)c2)CC1 [P187] | < 1000 | < 250 | < 50
CCOC[C@H]1CC[C@H](c2ccccc2CN(C)CCNC)CC1 [P049] | < 1000 | < 250 | < 50
CNCCN(C)Cc1ncccc1N1CCC(COc2ccc(C(F)(F)F)cc2)CC1 [P130] | < 1000 | 250 to 2500 | < 50
CCC1CCC(c2ccccc2CN(C)CCNC)CC1 (stereo not drawn) [P015] | < 1000 | 250 to 2500 | < 50
CCOCC1(COCC)CCC(c2cnccc2CN(C)CCNC)CC1 [P206] | 1000 to 5000 | 250 to 2500 | 50 to 500
CNCCN(C)Cc1ncccc1N1CCC(Oc2cc(C)cc(C)c2)CC1 [P148] | < 1000 | 250 to 2500 | < 50
CNCCN(C)Cc1nc(C)ccc1C1CCN(c2cccc(C)c2)CC1 [P080] | < 1000 | 250 to 2500 | 50 to 500
CNCCN(C)Cc1ncccc1N1CCC(Oc2ccccc2)CC1 [P185] | < 1000 | 250 to 2500 | < 50
CNCCN(C)Cc1ccc(F)cc1C1CCc2cc(F)cc(F)c2CC1 (stereo not drawn) [P008] | < 1000 | 250 to 2500 | < 50
CNCCN(C)Cc1ncccc1N1CCc2nc(SC)nc(C)c2CC1 [P323] | < 1000 | > 2500 | < 50
CNCCN(C)Cc1ccc(F)cc1C1CCc2cc(F)c(F)cc2CC1 [P007] | < 1000 | < 250 | < 50
CNCCN(C)Cc1ncccc1N1CCc2cc(F)cc(F)c2CC1 [P106] | < 1000 | 250 to 2500 | < 50
CNCCN(C)Cc1ccccc1[C@H]1CC[C@@H](OC(C)C)CC1 [P057] | < 1000 | 250 to 2500 | < 50
CNCCN(C)Cc1ncccc1C1CCN(c2cccc(C)c2)CC1 [P094] | < 1000 | < 250 | < 50
CNCCN(C)Cc1ncccc1N1CCC(Oc2cccc(C(F)(F)F)c2)CC1 [P141] | < 1000 | 250 to 2500 | < 50
CNCCN(C)Cc1cc(F)ccc1C1CCc2cc(F)c(F)cc2CC1 [P009] | < 1000 | 250 to 2500 | < 50
CNCCN(C)Cc1ccc(C(C)O)cc1C1CCN(c2cccc(C)c2)CC1 (stereo not drawn) [P083] | < 1000 | < 250 | < 50
CNCCN(C)Cc1ccc(N)nc1C1CCN(c2cccc(C)c2)CC1 [P226, N^1-((6-amino-2-(1-(m-tolyl)piperidin-4-yl)pyridin-3-yl)methyl)-N^1,N^2-dimethylethane-1,2-diamine] | < 1000 | < 250 | < 50
CCOCC1(COCC)CCC(c2ccccc2CN(C)CCNC)CC1 [P114] | < 1000 | < 250 | < 50
CNCCN(C)Cc1ncccc1N1CCC(Oc2cc(F)cc(C(F)(F)F)c2)CC1 [P137] | < 1000 | 250 to 2500 | < 50
CNCCN(C)Cc1ncccc1C1CCc2ccccc2CC1 [P075] | < 1000 | 250 to 2500 | < 50
CNCCN(C)Cc1ncccc1C1CCN(c2ccnc(N3CCCC3)n2)CC1 [P251] | < 1000 | 250 to 2500 | < 50

Structure (SMILES) | IC50 (Toledo cells) [nM] | EC30 (MMA in RKO cells) [nM] | IC50 (PRMT1) [nM]
CNCCN(C)Cc1ncccc1N1CCC(Oc2cc(C(F)(F)F)cc(C(F)(F)F)c2)CC1 [P122] | < 1000 | > 2500 | 50 to 500
CNCCN(C)Cc1ncccc1C1CCN(c2nccc(N3CCCC3)n2)CC1 [P252] | < 1000 | 250 to 2500 | < 50
CNCCN(C)Cc1ncccc1C1CCN(c2cc(C)cc(C)c2)CC1 [P079] | < 1000 | < 250 | < 50
CCOCC1(COCC)CCN(c2ccccc2CN(C)CCNC)CC1 [P136] | < 1000 | 250 to 2500 | < 50
CNCCN(C)Cc1ncccc1N1CCC(COc2ccccc2)CC1 [P165] | < 1000 | 250 to 2500 | < 50
CNCCN(C)Cc1ncccc1C1CCN(c2cccc(OC(F)(F)F)c2)CC1 [P143] | < 1000 | 250 to 2500 | < 50
CNCCN(C)Cc1cc(F)ccc1C1CCN(S(=O)(=O)c2ccccc2[N+](=O)[O-])CC1 [P325] | < 1000 | 250 to 2500 | < 50
CNCCN(C)Cc1ncccc1C1CCN(c2ccccc2OC)CC1 [P170] | < 1000 | 250 to 2500 | < 50
CNCCN(C)Cc1ncccc1C1CCN(c2cccc(Cl)c2)CC1 [P089] | < 1000 | < 250 | < 50
CCOCC1(Oc2cccc(C(F)(F)F)c2)CCN(c2cccnc2CN(C)CCNC)CC1 [P184] | < 1000 | > 2500 | 50 to 500
CNCCN(C)Cc1ccc(-c2cn[nH]c2)cc1C1CCN(c2cccc(C)c2)CC1 [P153] | < 1000 | < 250 | < 50
CNCCN(C)Cc1ncccc1N1CCc2ccc(C(F)(F)F)cc2CC1 [P088, N^1,N^2-dimethyl-N^1-((3-(7-(trifluoromethyl)-4,5-dihydro-1H-benzo[d]azepin-3(2H)-yl)pyridin-2-yl)methyl)ethane-1,2-diamine] | < 1000 | 250 to 2500 | < 50
CNCCN(C)Cc1ccc(F)cc1[C@H]1CC[C@H](c2cccc(C)c2)CC1 [P003] | < 1000 | < 250 | < 50
CCOCC1(COCC)CCC(c2cc3c(cc2CN(C)CCNC)CNC3=O)CC1 [P258] | < 1000 | < 250 | < 50
CNCCN(C)Cc1ncccc1C1CCN(c2ccccc2C)CC1 [P095] | < 1000 | < 250 | < 50
CNCCN(C)Cc1ncccc1N1CCc2ccc(OC)cc2CC1 [P186] | < 1000 | 250 to 2500 | < 50
CNCCN(C)Cc1cc(F)ccc1[C@H]1CC[C@H](c2cccc(C)c2)CC1 [P005] | < 1000 | 250 to 2500 | < 50
CNCCN(C)Cc1ccc2[nH]ncc2c1C1CCc2cc(F)c(F)cc2CC1 [P167, N1-((4-(2,3-difluoro-6,7,8,9-tetrahydro-5H-benzo[7]cyclopenten-7-yl)-1H-indazol-5-yl)methyl)-N1,N2-dimethylethane-1,2-diamine] | < 1000 | < 250 | < 50
CNCCN(C)Cc1ncccc1N1CCC(COc2cccc(C(F)(F)F)c2)CC1 [P131] | < 1000 | 250 to 2500 | < 50
CNCCN(C)Cc1ccccc1[C@H]1CC[C@]2(CCCOC2)CC1 [P052] | < 1000 | 250 to 2500 | < 50
CCOCC1(COCC)CCC(c2ncccc2CN(C)CCNC)CC1 [P208] | < 1000 | 250 to 2500 | < 50
CNCCN(C)Cc1ccc(F)cc1C1CCN(c2cccc(C)c2)CC1 [P021] | < 1000 | < 250 | < 50
CNCCN(C)Cc1ncccc1N1CCc2ccc(N)cc2CC1 [P243] | < 1000 | 250 to 2500 | < 50
CNCCN(C)Cc1ncccc1C1CCN(c2ncc3ccccc3n2)CC1 [P250] | < 1000 | 250 to 2500 | < 50
CNCCN(C)Cc1ccccc1C1CCC2(CC1)CC(C)(C)CO2 (stereo not drawn) [P039] | < 1000 | 250 to 2500 | < 50
